Here are results for one molecule from patent US7781477B2, “Therapeutic use of N-(1H-Indolyl)-1H-indole-2-carboxamide derivatives” (Sanofi-Aventis, priority 2004, dated 2010).

The target of one test is T1, TRPV1 receptor (Rattus norvegicus, UniProt O35433).
T1 construct: The neurons of the DRG naturally express the TRPV1 receptor; endogenous in cells; host or cells: primary culture of newborn rat dorsal root ganglion (DRG) neurons
Nature of the test: Inhibition of the current induced by capsaicin with regard to rat DRGs (whole cell patch clamp). Type of test: cell-based. The settings on record: DRG neuron; % inhibition of the control capsaicin (300 nM) response; compound at 10 nM; primary culture of newborn rat DRG neurons; read-out: % Inhibition by the DRG patch technique. As for the experimental part: Test of the Inhibition of the Current Induced by Capsaicin with Regard to Rat DRGs
Primary Culture of Rat Dorsal Route Ganglion (DRG) Cells:
The neurons of the DRG naturally express the TRPV1 receptor.
Primary cultures of DRGs of newborn rats are prepared from 1-day-old rats. Briefly, after dissection, the ganglions are trypsinized and their cells dissociated mechanically by gentle trituration. […]
The measurement chambers (volume 800 μl) comprising the cell preparation are placed on the stage of an inverted microscope (Olympus IMT2) equipped with Hoffman optics (Modulation Contrast, New York) and are observed at a magnification of 400×. […] The overall currents (membrane potential set at −60 mV) are recorded with an Axopatch 1D amplifier (Axon Instruments, Foster City, Calif.) connected to a PC controlled by Pclamp8 software (Axon Instruments). The current plots are recorded on paper and simultaneously recorded digitally (sampling frequency 15 to 25 Hz) and acquired on the hard disk of the PC.
The application of a 300 nM capsaicin solution produces an incoming cationic current with regard to the DRG cells (voltage set at −70 mV). […] The results are expressed as % of inhibition of the control capsaicin response.

The next test addresses T2, TRPV1 receptors (Mus musculus, UniProt Q704Y3).
T2 construct: from tissue; host or cells: living mouse, cornea (C fibers)
Nature of the test: Mouse corneal irritation test (capsaicin ocular instillation). Type of test: in vivo. The settings on record: percentage of protection against rubbing of the eye induced by 2 μl of 160 μM capsaicin, pretreatment time 1 h. Here is the method: Mouse Corneal Irritation Test
The irritating nature of capsaicin is easily assessed on the cornea since this organ is one of the most innervated by C fibers. In this context, according to preliminary experiments, the application of a very small amount of capsaicin (2 μl at a concentration of 160 μM) at the surface of the cornea of an animal results in a number of kinds of stereotyped behavior related to irritation which are easy to record. These include: blinking of the eye, rubbing of the instilled eye by the ipsilateral front paw, rubbing of the face with the two front paws and scratching of the ipsilateral face by the hind paw. […] Its appearance is furthermore also normal. […] It may be concluded therefrom that the duration of action of capsaicin at these doses is less than 2 minutes. […]
In practice, the test product is administered orally and, with a delay (pretreatment time: t) which depends on the pharmacokinetic data, the animal receives the ocular instillation of 2 μl of a 160 μM capsaicin solution prepared as indicated above. During observation for 2 minutes following the instillation, the number of rubbing actions on the instilled eye by the ipsilateral front paw is recorded.
For a given animal, the percentage of protection is calculated as follows: P=100−((number of scratching actions observed/mean number of scratching actions of the group treated with the solvent)×100). […]

T2 sequence (Q704Y3 whole entry): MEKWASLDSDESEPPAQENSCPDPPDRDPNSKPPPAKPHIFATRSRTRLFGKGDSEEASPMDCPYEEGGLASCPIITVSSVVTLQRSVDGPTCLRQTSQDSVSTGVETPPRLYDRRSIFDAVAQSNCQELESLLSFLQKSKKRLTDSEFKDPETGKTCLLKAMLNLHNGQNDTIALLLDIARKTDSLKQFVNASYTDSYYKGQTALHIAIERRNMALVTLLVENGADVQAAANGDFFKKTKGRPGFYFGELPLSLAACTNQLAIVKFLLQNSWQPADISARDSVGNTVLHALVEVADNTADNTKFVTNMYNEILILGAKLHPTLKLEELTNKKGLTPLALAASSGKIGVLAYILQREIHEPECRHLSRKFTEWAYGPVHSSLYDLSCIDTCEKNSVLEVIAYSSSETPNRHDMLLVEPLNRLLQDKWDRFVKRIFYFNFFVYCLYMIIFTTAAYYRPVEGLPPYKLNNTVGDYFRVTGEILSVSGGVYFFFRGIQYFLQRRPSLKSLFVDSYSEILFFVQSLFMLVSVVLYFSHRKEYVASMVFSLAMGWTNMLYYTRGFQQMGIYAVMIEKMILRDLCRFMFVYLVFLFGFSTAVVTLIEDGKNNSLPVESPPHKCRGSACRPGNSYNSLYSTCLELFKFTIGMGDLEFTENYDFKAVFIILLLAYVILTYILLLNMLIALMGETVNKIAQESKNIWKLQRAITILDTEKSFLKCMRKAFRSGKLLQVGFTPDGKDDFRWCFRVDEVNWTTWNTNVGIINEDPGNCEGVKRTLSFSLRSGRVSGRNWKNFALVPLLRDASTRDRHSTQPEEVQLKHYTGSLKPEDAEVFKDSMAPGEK
T1 sequence (O35433 whole entry): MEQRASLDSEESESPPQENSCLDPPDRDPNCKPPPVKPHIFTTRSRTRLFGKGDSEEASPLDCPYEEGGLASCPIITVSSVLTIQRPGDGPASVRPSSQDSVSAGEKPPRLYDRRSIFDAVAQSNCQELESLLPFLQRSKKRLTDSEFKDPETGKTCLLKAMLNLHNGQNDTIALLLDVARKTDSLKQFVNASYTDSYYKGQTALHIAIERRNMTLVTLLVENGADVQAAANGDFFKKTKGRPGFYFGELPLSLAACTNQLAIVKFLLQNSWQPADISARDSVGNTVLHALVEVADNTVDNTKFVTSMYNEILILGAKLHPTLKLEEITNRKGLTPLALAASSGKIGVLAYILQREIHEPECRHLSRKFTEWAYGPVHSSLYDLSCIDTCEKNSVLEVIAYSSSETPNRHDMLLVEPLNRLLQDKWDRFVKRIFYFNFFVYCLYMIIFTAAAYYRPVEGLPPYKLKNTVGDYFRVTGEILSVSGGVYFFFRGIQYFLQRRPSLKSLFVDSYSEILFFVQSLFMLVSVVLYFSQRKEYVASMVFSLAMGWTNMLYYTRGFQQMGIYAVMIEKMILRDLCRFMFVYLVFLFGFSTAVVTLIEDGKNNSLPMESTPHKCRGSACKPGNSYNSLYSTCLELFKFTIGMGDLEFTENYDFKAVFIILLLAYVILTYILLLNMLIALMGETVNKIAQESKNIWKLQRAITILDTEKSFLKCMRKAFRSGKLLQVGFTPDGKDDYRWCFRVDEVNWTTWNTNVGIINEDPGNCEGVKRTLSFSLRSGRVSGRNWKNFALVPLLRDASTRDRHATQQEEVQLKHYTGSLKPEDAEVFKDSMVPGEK

Consider `Cn1ccc2cc(NC(=O)c3cc4ccccc4n3Cc3cccc(C(F)(F)F)c3)ccc21` [Compound No. 1, N-(1-Methyl-1H-indol-5-yl)-1-(3-trifluoromethylbenzyl)-1H-indole-2-carboxamide], for which the inhibition (as a rule, the relative decrease from the control value, in per cent) at 0.01 µM on TRPV1 receptor turned out to be 56%. Moreover, at TRPV1 receptors, the “% P - (t) at 60 mg/kg (p.o.) - (n = 8)” value is 26% - (1 h).
